Patent US11597911B2, “Expansion of populations of T cells by the use of modified serum free media” (Life Technologies Corporation, priority 2017, dated 2023)

How the values were obtained:
[1] = system: Primary human T cells; experiment: T cell expansion in serum-free medium with glucose, galactose or mixtures; type: cell-based; settings: final sugar 6 g/L; lipid concentrate 1:100; CD3/CD28 beads; counted days 5-12; FIG. 3
Text: FIG. 3 is a graph depicting that galactose alone is suboptimal for human T cell expansion. Primary human T cells from normal donors were negatively isolated from PBMCs with DYNABEADS® UNTOUCHED™ Human T Cells kit. T cells (seeding density 1×10^6/mL) were activated with DYNABEADS® Human T-Expander CD3/CD28 at a ratio of 3 beads per T cell and cultured in serum-free medium supplemented with GIBCO™ Chemically Defined Lipid Concentrate (1:100) and either d-glucose, d-galactose or mixtures of glucose and galactose as indicated; final concentration of sugar was 6 g/L in all conditions. T cells were fed and counted on days 5, 7, 10 and 12 on a Beckman-Coulter ViCell analyzer. Cell expansion is expressed as cumulative viable T cells over time. Results are representative of at least 3 independent experiments.
Primary human T cells from normal donors were negatively isolated from PBMCs with DYNABEADS® UNTOUCHED™ Human T Cells kit. […] T cells were fed and counted on days 5, 7, 10 and 12 on a Beckman-Coulter ViCell analyzer. Cell expansion is expressed as cumulative viable T cells over time. […]

[2] = system: Naïve and Central Memory CD4+ T cells; experiment: Expansion and cytokine production of sorted CD4+ T cell subsets in limited glucose:galactose media; type: cell-based, human; settings: in the presence of low glucose; FIG. 21
Text: Bulk CD4+ T cells were sorted into Tregs, Naïve, Tcm (central memory), and Tem (effector memory) subsets based on the markers CD25, CD45RA, CD62L, and CCR7. Based on FIG. 20, T cells of different subpopulations may be sorted through use of FACS. […] Expanded naïve CD4+ T cells preserve the naïve phenotype when grown in limited glucose, as witnessed through FACS analysis (see FIG. 22 and FIG. 23).
While good expansion of T cells can be achieved in media containing multiple ratios of glucose and galactose, ratios with limiting glucose can have a negative impact in interferon gamma production. There is evidence that interferon-gamma expression is regulated via GAPDH in T-cells (Chang, et al Cell. 2013 June 6; 153(6): 1239-1251) thus excessively limiting glycolysis during T cell expansion can impair IFN-γ production. […] Central memory T cells appear not to be effected by glucose level. […] Primary human CD4+ T cells from normal donors isolated via negative selection were obtained from UPenn Human Immunology Core Facility. Cells were separated by flow cytometric sorting into Naïve (CD45RA+/CD27+/CCR7+), and Central Memory (CD45RA−/CD27+/CCR7+), subsets. […] T cells were fed and counted on days 5, 7, 10 and 12 on a Beckman-Coulter Multisizer 3. […]

O=C[C@H](O)[C@@H](O)[C@@H](O)[C@H](O)CO [D-galactose]
in vitro T cell expansion (cumulative viable T cells over time) [1]: not sufficient to support optimal in vitro T cell expansion
expansion of naïve T cells [2]: high rate of expansion
